Consider 53 compounds from patent US8808702B2, “Sulfide, sulfoxide and sulfone chalcone analogues, derivatives thereof and therapeutic uses thereof” (Temple University-of the Commonwealth System of Higher …, priority 2006, dated 2014).

Assay [1] deals with K562 (chronic myelogenous leukaemia). Nature of the assay: Effect of compounds on tumor cell lines (assay of Latham et al.), K562. It is filed as cell-based. As to conditions: K562 cells, read-out: K 562 potency (IC50). How it is done:
(§1) The effect of the compounds of the invention on tumor cells was determined by the assay described by Latham et al., Oncogene 12:827-837 (1996). Tumor cells K562 (chronic myelogenous leukaemia) or DU145 (prostate cancer) were plated in 12-well dishes at a cell density of 2.5×10^4 cells well. The plated cells were treated 24 hours later with a compound of the invention dissolved in DMSO at multiple concentrations ranging from 1 μM to 100 μM. The plates were examined 96 hours later under an inverted microscope, Olympus CK-2 using an 10× objective, and compound activity was noted by physical observation. When necessary, the total number of viable cells was determined by trypsinizing the wells and counting the number of viable cells, as determined by trypan blue exclusion, using a hemacytometer.
(§2) The representative compounds listed in Tables 1-5 are shown by way of illustration, and are not intended to limit the scope of the invention. The compounds are prepared and tested by methods based on those described above, except that the compound of Table 5 was dissolved in DMSO at multiple concentrations ranging from 0.1 μM to 100 μM

The next assay has as its system DU145 (prostate cancer). Put plainly: Effect of compounds on tumor cell lines (assay of Latham et al.), DU145. As to conditions: DU145 cells, read-out: DU 145 potency (IC50). The class given is cell-based. How it is done:
as §1, §2

Setting [2] is: Table 1, examined 96 hours after treatment, 1 μM to 100 μM in DMSO.
[3] abbreviates: 96 hours after treatment, 1 μM to 100 μM.

Like-named read-outs stand apart in the source and are kept apart here.

A word on the IC50: it is the concentration that inhibits the measured activity by half. For `Cc1ccc(SC(=Cc2cc([N+](=O)[O-])ccc2F)C(=O)c2ccc(Cl)cc2)cc1` [Example 74], the IC50 in assay [1] (setting [2]) was in the range of 1 to 10 µM; with DU145 (prostate cancer) (setting [2]), 10 to 25 µM.
Taken in the same sequence, the figures for `COc1ccccc1C=C(Sc1ccc(C)cc1)C(=O)c1ccc(Cl)cc1` [Example 75] were 10 to 25 µM and 25 to 50 µM.
Regarding `Cc1ccc(SC(=Cc2ccc[nH]2)C(=O)c2ccc(Cl)cc2)cc1` [Example 76], the IC50 (in assay [1] (setting [2]); in the assay on DU145 (prostate cancer) (setting [2])) was 10 to 25 µM in each case.
As to `Cc1ccc(SC(=Cc2ccc(Cl)c(Cl)c2)C(=O)c2ccc(Br)cc2)cc1` [Example 77], the IC50 (in assay [1] (setting [2]); in the assay on DU145 (prostate cancer) (setting [2])) was 50 to 100 µM in each case.
On to `Cc1ccc(SC(=Cc2cc(C)cc(C)c2)C(=O)c2ccc(Cl)cc2)cc1` [Example 78], for which the IC50 in assay [1] (setting [2]) is 25 to 50 µM; in the assay with DU145 (prostate cancer) (setting [2]), 50 to 100 µM.
Consider `COc1ccc(C=C(Sc2ccc(C)cc2)C(=O)c2ccc(Cl)cc2)cc1O` [Example 79], for which the IC50 (in assay [1] (setting [2]); in the assay on DU145 (prostate cancer) (setting [2])) was 1 to 10 µM each time.
Turning to `Cc1ccc(SC(=Cc2c[nH]c3ccccc23)C(=O)c2ccc(Br)cc2)cc1` [Example 80], the IC50 (in assay [1] (setting [2]); in the assay on DU145 (prostate cancer) (setting [2])) was 10 to 25 µM in each case.
Take `Cc1ccc(SC(=Cc2c[nH]c3ccccc23)C(=O)c2ccc(Cl)cc2)cc1` [Example 81]: the IC50 in assay [1] (setting [2]) is 1 to 10 µM; in the assay with DU145 (prostate cancer) (setting [2]), 10 to 25 µM.
On to `Cc1ccc(SC(=Cc2sccc2C)C(=O)c2ccc(Br)cc2)cc1` [Example 82], for which the IC50 was 50 to 100 µM in assay [1] (setting [2]) and greater than 100 µM with DU145 (prostate cancer) (setting [2]).
Taken in the same sequence, the figures for `Cc1ccc(SC(=Cc2sccc2C)C(=O)c2ccc(Br)cc2)cc1` [Example 83] were 50 to 100 µM and 50 to 100 µM.
Turning to `Cc1ccc(SC(=Cc2sccc2C)C(=O)c2ccc(Cl)cc2)cc1` [Example 84], the IC50 (in assay [1] (setting [2]); with DU145 (prostate cancer) (setting [2])) was 50 to 100 µM throughout.
As for `Cc1ccc(SC(=Cc2cnc3ccccc3c2)C(=O)c2ccc(Cl)cc2)cc1` [Example 85], the IC50 (in assay [1] (setting [2]); in the assay on DU145 (prostate cancer) (setting [2])) was greater than 100 µM each time.
On to `CC(=O)Oc1ccc(C=C(Sc2ccc(C)cc2)C(=O)c2ccc(Cl)cc2)cc1` [Example 86], for which the IC50 in assay [1] (setting [2]) is 1 to 10 µM; in the assay with DU145 (prostate cancer) (setting [2]), 10 to 25 µM.
Taken in the same sequence, the figures for `CC(=O)c1ccc(C=C(Sc2ccc(C)cc2)C(=O)c2ccc(Br)cc2)cc1` [Example 87] were 50 to 100 µM and 50 to 100 µM.
For `Cc1ccc(SC(=Cc2ccc(Br)cc2)C(=O)c2ccc(Cl)cc2)cc1` [Example 88] the same measures were 50 to 100 µM and 25 to 50 µM.
For `Cc1ccc(SC(=Cc2ccc(Cl)cc2)C(=O)c2ccc(Br)cc2)cc1` [Example 90] the same measures were 1 to 10 µM and 10 to 25 µM.
As to `Cc1ccc(SC(=Cc2ccc(Cl)cc2)C(=O)c2ccc(Cl)cc2)cc1` [Example 91], the IC50 in assay [1] (setting [2]) was 1 to 10 µM; in the assay with DU145 (prostate cancer) (setting [2]), 25 to 50 µM.
For `CCOc1ccc(C=C(Sc2ccc(C)cc2)C(=O)c2ccc(Cl)cc2)cc1OC` [Example 93] the same measures were 10 to 25 µM and 25 to 50 µM.
For `Cc1ccc(SC(=Cc2ccc(F)cc2OC(F)(F)F)C(=O)c2ccc(Br)cc2)cc1` [Example 94], the IC50 (in assay [1] (setting [2]); in the assay with DU145 (prostate cancer) (setting [2])) was 25 to 50 µM in each case.
Regarding `Cc1ccc(SC(=Cc2ccc(F)c(C)c2)C(=O)c2ccc(Br)cc2)cc1` [Example 95], the IC50 in assay [1] (setting [2]) was 1 to 10 µM; with DU145 (prostate cancer) (setting [2]), 25 to 50 µM.
For `Cc1ccc(SC(=Cc2ccc(O)c([N+](=O)[O-])c2)C(=O)c2ccc(Cl)cc2)cc1` [Example 96] the same measures were 25 to 50 µM and 10 to 25 µM.
As to `CSc1ccc(C=C(Sc2ccc(C)cc2)C(=O)c2ccc(Br)cc2)cc1` [Example 97], the results for the IC50 (in assay [1] (setting [2]); in the assay with DU145 (prostate cancer) (setting [2])) were 1 to 10 µM and 25 to 50 µM, respectively.
Taken in the same sequence, the figures for `COc1ccc(C=C(Sc2ccc(C)cc2)C(=O)c2ccc(Br)cc2)cc1` [Example 99] were 10 to 25 µM and 50 to 100 µM.
For `COc1ccc(C=C(Sc2ccc(C)cc2)C(=O)c2ccc(Cl)cc2)cc1` [Example 100] the same measures were 1 to 10 µM and 1 to 10 µM.
Taken in the same sequence, the figures for `Cc1ccc(SC(=Cc2ccc(N(C)C)cc2)C(=O)c2ccc(Br)cc2)cc1` [Example 101] were 50 to 100 µM and greater than 100 µM.
Turning to `Cc1ccc(SC(=Cc2ccc(N(C)C)cc2)C(=O)c2ccc(Cl)cc2)cc1` [Example 102], the IC50 (in assay [1] (setting [2]); in the assay with DU145 (prostate cancer) (setting [2])) was greater than 100 µM each time.
On to `Cc1ccc(SC(=Cc2ccc(Oc3ccccc3)cc2)C(=O)c2ccc(Br)cc2)cc1` [Example 103], for which the IC50 lay within 10 to 25 µM in assay [1] (setting [2]) and 1 to 10 µM with DU145 (prostate cancer) (setting [2]).
For `Cc1ccc(SC(=Cc2ccc(Oc3ccccc3)cc2)C(=O)c2ccc(Cl)cc2)cc1` [Example 104] the same measures were 10 to 25 µM and 10 to 25 µM.
For `Cc1ccc(SC(=Cc2c[nH]c3ccc(Br)cc23)C(=O)c2ccc(Br)cc2)cc1` [Example 105] the same measures were 10 to 25 µM and 1 to 10 µM.
Taken in the same sequence, the figures for `Cc1ccc(SC(=Cc2c[nH]c3ccc(Br)cc23)C(=O)c2ccc(Cl)cc2)cc1` [Example 106] were 1 to 10 µM and 1 to 10 µM.
Regarding `Cc1ccc(SC(=Cc2c[nH]c3ccc(Cl)cc23)C(=O)c2ccc(Br)cc2)cc1` [Example 107], the IC50 (in assay [1] (setting [2]); with DU145 (prostate cancer) (setting [2])) was 1 to 10 µM throughout.
For the compound `Cc1ccc(SC(=Cc2c[nH]c3ccc(Cl)cc23)C(=O)c2ccc(Cl)cc2)cc1` [Example 108], the IC50 (in assay [1] (setting [2]); in the assay with DU145 (prostate cancer) (setting [2])) was 1 to 10 µM each time.
On to `Cc1ccc(SC(=Cc2ccc(C)s2)C(=O)c2ccc(Br)cc2)cc1` [Example 109], for which the figures for the IC50 (in assay [1] (setting [2]); in the assay with DU145 (prostate cancer) (setting [2])) were 50 to 100 µM and greater than 100 µM, respectively.
For `Cc1ccc(SC(=Cc2ccc(-c3ccccc3)cc2)C(=O)c2ccc(Br)cc2)cc1` [Example 110] the same measures were 25 to 50 µM and 50 to 100 µM.
Taken in the same sequence, the figures for `Cc1ccc(SC(=Cc2ccc(-c3ccccc3)cc2)C(=O)c2ccc(Cl)cc2)cc1` [Example 111] were 25 to 50 µM and 50 to 100 µM.
For `O=C(O)c1ccc(C(=O)C(=Cc2ccc(F)c([N+](=O)[O-])c2)Sc2c(F)c(F)c(F)c(F)c2F)cc1` [Example 112] the same measures were no more than 1 µM and 1 to 10 µM.
As for `Cc1ccc(SC(=Cc2ccc(F)c([N+](=O)[O-])c2)C(=O)c2ccc(Br)cc2)cc1` [Example 113], the IC50 (in assay [1] (setting [2]); with DU145 (prostate cancer) (setting [2])) was 1 to 10 µM in each case.
Turning to `O=C(C(=Cc1cccc(Cl)c1Cl)SCc1ccc(Cl)cc1Cl)c1ccc(Cl)cc1` [Example 114], the IC50 (in assay [1] (setting [3]); with DU145 (prostate cancer) (setting [3])) was 1 to 10 µM throughout.
For `O=C(C(=Cc1c(O)cc(O)cc1O)SCc1ccc(Cl)cc1Cl)c1ccc(Cl)cc1` [Example 115], the IC50 in assay [1] (setting [3]) is greater than 100 µM; in the assay with DU145 (prostate cancer) (setting [3]) it was 25 to 50 µM.
Taken in the same sequence, the figures for `COc1cc(OC)c(C=C(SCc2ccc(Cl)cc2Cl)C(=O)c2ccc(Cl)cc2)c(OC)c1` [Example 116] were 25 to 50 µM and 1 to 10 µM.
Regarding `CCOc1cc(C=C(SCc2ccc(Cl)cc2Cl)C(=O)c2ccc(Cl)cc2)ccc1O` [Example 117], the IC50 lay in the range of 1 to 10 µM in assay [1] (setting [3]) and 10 to 25 µM in the assay with DU145 (prostate cancer) (setting [3]).
In the case of `O=C(C(=Cc1c[nH]c2ccccc12)SCc1ccc(Cl)cc1Cl)c1ccc(Cl)cc1` [Example 118], the IC50 (in assay [1] (setting [3]); in the assay with DU145 (prostate cancer) (setting [3])) was 10 to 25 µM throughout.
`Cc1ccsc1C=C(SCc1ccc(Cl)cc1Cl)C(=O)c1ccc(Cl)cc1` [Example 119]: the IC50 in assay [1] (setting [3]) lay in the range of 50 to 100 µM; with DU145 (prostate cancer) (setting [3]) it was 10 to 25 µM.
Taken in the same sequence, the figures for `CN(C)c1ccc(C=C(SCc2ccc(Cl)cc2Cl)C(=O)c2ccc(Cl)cc2)cc1` [Example 120] were greater than 100 µM and 50 to 100 µM.
For `O=C(C(=Cc1ccc(OCc2ccccc2)cc1)SCc1ccc(Cl)cc1Cl)c1ccc(Cl)cc1` [Example 121] the same measures were 10 to 25 µM and 1 to 10 µM.
For `O=C(C(=Cc1ccc(Cl)cc1)SCc1ccc(Cl)cc1Cl)c1ccc(Cl)cc1` [Example 122] the same measures were 1 to 10 µM and 10 to 25 µM.
Consider `O=C(C(=Cc1c[nH]c2ccc(Br)cc12)SCc1ccc(Cl)cc1Cl)c1ccc(Cl)cc1` [Example 123], for which the IC50 lay in the range of 1 to 10 µM in assay [1] (setting [3]) and 10 to 25 µM in the assay on DU145 (prostate cancer) (setting [3]).
Take `Cc1ccc(C=C(SCc2ccc(Cl)cc2Cl)C(=O)c2ccc(Cl)cc2)s1` [Example 124]: the IC50 (in assay [1] (setting [3]); in the assay on DU145 (prostate cancer) (setting [3])) was 50 to 100 µM each time.
Take `COc1ccc(C=C(SCc2ccccc2Cl)C(=O)c2ccc(Cl)cc2)c(OC)c1OC` [Example 125]: the figures for the IC50 (in assay [1] (setting [3]); in the assay with DU145 (prostate cancer) (setting [3])) were 1 to 10 µM and 10 to 25 µM, respectively.
Taken in the same sequence, the figures for `COc1cc(OC)c(C=C(SCc2ccccc2Cl)C(=O)c2ccc(Cl)cc2)c(OC)c1` [Example 126] were 10 to 25 µM and 50 to 100 µM.
For `CN(C)c1ccc(C=C(SCc2ccccc2Cl)C(=O)c2ccc(Cl)cc2)cc1` [Example 127] the same measures were 50 to 100 µM and greater than 100 µM.
For `O=C(C(=Cc1ccc(OCc2ccccc2)cc1)SCc1ccccc1Cl)c1ccccc1Cl` [Example 128] the same measures were 1 to 10 µM and 1 to 10 µM.
With `O=C(C(=Cc1ccc(Br)cc1)SCc1ccccc1Cl)c1ccc(Cl)cc1` [Example 129], the IC50 is 1 to 10 µM in assay [1] (setting [3]) and 10 to 25 µM in the assay with DU145 (prostate cancer) (setting [3]).
